Reference: patent publication US7326734B2, “Treatment of bladder and urinary tract cancers” (The Regents of the University of California, priority 2003, dated 2008)

How the values were obtained:
[1] = tested on: T24 bladder cancer cells; test: antiproliferative activity against T24 (Grade 3, non-metastatic) bladder cancer cells in vitro; format: cell-based; details: for Percentage of inhibition related to control (%) / inhibition at 25 µg/mL / inhibition at 50 µg/mL / inhibition at 100 µM: bladder cancer cells in vitro; for inhibition at 25 µg/mL / inhibition at 50 µg/mL / inhibition at 100 µM: read-out: Percentage of inhibition related to control (%)
Procedure: (§1) Compounds of the present invention were tested for antiproliferative activity against RT24 (Grade I) and T24 (Grade3, non-metastatic) bladder cancer cells in vitro, in accordance with well known standard technique as diagramed in FIG. 5.

[2] = tested on: RT24 (Grade I) bladder cancer cells; test: antiproliferative activity against RT24 (Grade I) bladder cancer cells in vitro; format: cell-based; details: FIGS. 1-4
Procedure: FIG. 5 is a schematic diagram of the in vitro test for antiproliferative activity referred to in Example 1 below.
as §1

[3] = tested on: bladder cancer; details: cited from earlier work
[4] = tested on: advanced transitional cell carcinoma of the urothelium; details: Phase II, with prophylactic G-CSF, cited from earlier work
[5] = tested on: human bladder cancer cell lines; details: cited from earlier work

11-Methysticin
Percentage of inhibition related to control (%) ([1]; 25 μg/ml): 52.1%

COc1cc(O)cc(O)c1C(=O)CC(O)c1ccccc1 (stereo not shown) [1-(2,4-Dihydorxy-6-methoxy-phenyl-3-hydorxy-3-phenyl-propan-1-one]
Percentage of inhibition related to control (%) ([1]; 25 μg/ml): 42.3%

COc1ccc(/C=C/C(=O)c2c(OC)cc(O)cc2OC)cc1 [4′-hydroxy-4,2′,6′-trimethoxychalcone]
inhibition at 25 µg/mL ([1]; 25 μg/ml): 73.7%

COc1cc(/C=C/c2ccc(OC)c(OC)c2)oc(=O)c1 [11-Methoxyangonin]
Percentage of inhibition related to control (%) ([1]; 25 μg/ml): 26.3%

COc1ccc2cc3[n+](cc2c1OC)CCc1cc2c(cc1-3)OCO2 [Berberine]
inhibition at 50 µg/mL ([1]; 50 μg/ml): 17.9%

COc1ccc(-c2coc3cc(O)cc(O)c3c2=O)cc1 [Biochanin A]
Percentage of inhibition related to control (%) ([1]; 25 μg/ml): 48.7%

CC(=O)OC[C@@]1(O)C[C@@]23CC[C@@H]4c5ccoc5CC[C@@]4(C)[C@@H]2CC[C@@H]1C3 [Cafestol Acetate]
inhibition at 50 µg/mL ([1]; 50 μg/ml): 57.6%

O=c1oc2cc(O)ccc2c2oc3cc(O)ccc3c12 [Coumestrol]
inhibition at 50 µg/mL ([1]; 50 μg/ml): 30%

COc1cc(/C=C/C(=O)CC(=O)/C=C/c2ccc(O)c(OC)c2)ccc1O [Curcumin]
inhibition at 50 µg/mL ([1]; 50 μg/ml): 69.7%

O=c1c(-c2ccc(O)cc2)coc2cc(O)ccc12 [Daidzein]
inhibition at 50 µg/mL ([1]; 50 μg/ml): 39.3%

O=C(O[C@@H]1Cc2c(O)cc(O)cc2O[C@@H]1c1cc(O)c(O)c(O)c1)c1cc(O)c(O)c(O)c1 [EGCG]
Percentage of inhibition related to control (%) ([1]; 25 μg/ml): 34%

O=c1oc2c(O)c(O)cc3c(=O)oc4c(O)c(O)cc1c4c23 [Ellagic acid]
inhibition at 100 µM [1]: 66%

COc1ccc(/C=C/C(=O)c2c(O)cc(OC)cc2OC)cc1 [Flavokawain A, 2′-hydroxy-4,4′,6′-trimethoxychalcone]
inhibitory effects on proliferation [2]: significant inhibitory effects | inhibitory effects on proliferation ([1]; T24 (Grade 3, non-metastatic) cells in vitro, FIGS. 1-4): significant inhibitory effects

Nc1ccn([C@@H]2O[C@H](CO)[C@@H](O)C2(F)F)c(=O)n1 [Gemcitabine]
median survival ([3]; clinical trials): less than 12 months | response rate ([3]; clinical trials): less than 30% | toxicity ([3]; phase II trials): in general mild and reversible

O=c1c(-c2ccc(O)cc2)coc2cc(O)cc(O)c12 [Genistein]
inhibition at 25 µg/mL ([1]; 25 μg/ml): 48.7%

O=c1c(O)c(-c2ccc(O)cc2)oc2cc(O)cc(O)c12 [Kaempferol]
inhibition at 50 µg/mL ([1]; 50 μg/ml): 60%

C[C@@]12C=Cc3occc3[C@H]1CC[C@@]13C[C@@H](CC[C@H]12)[C@@](O)(CO)C3 [Kahweol]
Percentage of inhibition related to control (%) ([1]; 50 μg/ml): 61.2%

COC1=CC(=O)O[C@@H](/C=C/c2ccccc2)C1 [Kawain]
inhibition at 25 µg/mL ([1]; 25 μg/ml): 33.6%

O=c1c(O)c(-c2ccc(O)cc2O)oc2cc(O)cc(O)c12 [Morin]
inhibition at 50 µg/mL ([1]; 50 μg/ml): 34%

O=C1C[C@@H](c2ccc(O)cc2)Oc2cc(O)cc(O)c21 [Naringenin]
inhibition at 50 µg/mL ([1]; 50 μg/ml): 20%

C[C@@H]1O[C@@H](O[C@H]2[C@H](Oc3cc(O)c4c(c3)O[C@H](c3ccc(O)cc3)CC4=O)O[C@H](CO)[C@@H](O)[C@@H]2O)[C@H](O)[C@H](O)[C@H]1O [Naringin]
inhibition at 50 µg/mL ([1]; 50 μg/ml): 29%

Oc1cc(O)c2c(c1)O[C@H](c1ccc(O)c(O)c1)[C@H](O)[C@H]2c1c(O)cc(O)c2c1O[C@H](c1ccc(O)c(O)c1)[C@@H](O)C2 [Procyanidin B1]
Percentage of inhibition related to control (%) ([1]; 25 μg/ml): 44.2%

O=c1c(O)c(-c2ccc(O)c(O)c2)oc2cc(O)cc(O)c12 [Quercetin]
inhibition at 50 µg/mL ([1]; 50 μg/ml): 53.3%

Oc1ccc(C=Cc2cc(O)cc(O)c2)cc1 [Resveratrol]
inhibition at 50 µg/mL ([1]; 50 μg/ml): 70.6%

O=c1c2ccccc2nc2n1CCc1c-2[nH]c2ccccc12 [Rutaecurpine]
Percentage of inhibition related to control (%) ([1]; 50 μg/ml): 76%

C[C@@H]1O[C@@H](OC[C@H]2O[C@@H](Oc3c(-c4ccc(O)c(O)c4)oc4cc(O)cc(O)c4c3=O)[C@H](O)[C@@H](O)[C@@H]2O)[C@H](O)[C@H](O)[C@H]1O [Rutin]
inhibition at 100 µM [1]: 47.7%

COc1cc(C2Oc3cc([C@H]4Oc5cc(O)cc(O)c5C(=O)[C@@H]4O)ccc3OC2CO)ccc1O (stereo partly shown) [Silibinin]
inhibition at 100 µM [1]: 40%

O=C1c2c(O)cc(O)cc2O[C@H](c2ccc(O)c(O)c2)[C@H]1O [Taxifolin]
inhibition at 50 µg/mL ([1]; 50 μg/ml): 36.7%

CC(=O)O[C@H]1C(=O)[C@@]2(C)[C@H]([C@H](OC(=O)c3ccccc3)[C@]3(O)C[C@H](OC(=O)[C@H](O)[C@@H](NC(=O)c4ccccc4)c4ccccc4)C(C)=C1C3(C)C)[C@]1(OC(C)=O)CO[C@@H]1C[C@@H]2O [paclitaxel]
objective response (response rate) ([4]; previously untreated patients): 42% | toxicities [4]: granulocytopenia, anemia, mucositis, and neuropathy | activity against human bladder cancer cell lines [5]: significant activity
